The NIST ThermoML archive (doi:10.1016/j.jct.2016.09.026)
Numbers after ± are expanded uncertainties.

Key:
[1] = molar enthalpy of vaporization or sublimation; settings: 341.73 K; Liquid; Static calorimetry
[2] = molar heat capacity at constant pressure; settings: 101.33 kPa, Small sample (50 mg) DSC
[3] = Crystal
[4] = Molar enthalpy of transition or fusion; settings: Crystal; DSC

CCCCC(=O)c1ccc(O)cc1 [1-(4-hydroxyphenyl)-1-pentanone]
Settings | Molar enthalpy of transition or fusion [kJ/mol] | molar enthalpy [kJ/mol]
[1] | – | 96.07 ± 0.73
[4] | 25.8 ± 0.59 | –

[2]
Settings | molar heat capacity at constant pressure [J/K/mol]
288.67 K, Crystal | 235 ± 7.5
288.92 K, Crystal | 235.9 ± 7.3
289.17 K, Crystal | 235.2 ± 6.7
289.42 K, Crystal | 236.4 ± 6.7
289.67 K, Crystal | 236 ± 7.7
289.92 K, Crystal | 235.3 ± 7.5
290.17 K, Crystal | 236.5 ± 7.5
290.42 K, Crystal | 236.3 ± 7.5
290.68 K, Crystal | 238 ± 8.1
290.93 K, Crystal | 236.4 ± 7.1
291.18 K, Crystal | 236.8 ± 7.7
291.43 K, Crystal | 238 ± 8.1
291.68 K, Crystal | 237.8 ± 8.1
291.93 K, Crystal | 236.7 ± 7.7
292.18 K, Crystal | 237.4 ± 7.5
292.43 K, Crystal | 238.5 ± 7.7
292.68 K, Crystal | 239 ± 8.8
292.93 K, Crystal | 239.6 ± 7.5
293.18 K, Crystal | 239.6 ± 7.7
293.43 K, Crystal | 240 ± 7.7
293.68 K, Crystal | 240.4 ± 8.8
293.93 K, Crystal | 239.8 ± 8.3
294.18 K, Crystal | 239.1 ± 7.7
294.44 K, Crystal | 239.1 ± 8.3
294.69 K, Crystal | 240.8 ± 8.3
294.94 K, Crystal | 240.4 ± 8.3
295.19 K, Crystal | 239.8 ± 7.7
295.44 K, Crystal | 240.5 ± 7.1
295.69 K, Crystal | 241.6 ± 7.5
295.94 K, Crystal | 241.1 ± 7.5
296.19 K, Crystal | 240.8 ± 7.9
296.44 K, Crystal | 242.1 ± 8.1
296.69 K, Crystal | 241.7 ± 7.7
296.94 K, Crystal | 241.2 ± 8.6
297.19 K, Crystal | 241.5 ± 8.3
297.44 K, Crystal | 242.2 ± 8.6
297.69 K, Crystal | 241.6 ± 7.7
297.94 K, Crystal | 242.5 ± 8.1
298.19 K, Crystal | 242.7 ± 8.3
298.44 K, Crystal | 242.8 ± 7.7
298.69 K, Crystal | 241.8 ± 7.9
298.94 K, Crystal | 242.3 ± 7.5
299.19 K, Crystal | 242.3 ± 6.9
299.44 K, Crystal | 242.2 ± 8.1
299.69 K, Crystal | 242.9 ± 8.6
299.94 K, Crystal | 244.1 ± 8.8
300.19 K, Crystal | 244.9 ± 8.6
300.44 K, Crystal | 244.3 ± 8.4
300.69 K, Crystal | 244.4 ± 8.1
300.94 K, Crystal | 244.7 ± 8.8
301.19 K, Crystal | 244.5 ± 8.4
301.44 K, Crystal | 243.4 ± 8.4
301.69 K, Crystal | 244.2 ± 8.1
301.94 K, Crystal | 244.9 ± 8.2
302.19 K, Crystal | 245.3 ± 8.4
302.44 K, Crystal | 245.1 ± 8.6
302.69 K, Crystal | 244.8 ± 8.6
302.94 K, Crystal | 245.6 ± 8.8
303.19 K, Crystal | 246.4 ± 9
303.44 K, Crystal | 246.5 ± 8.2
303.69 K, Crystal | 247 ± 8.2
303.94 K, Crystal | 247.4 ± 8.8
304.19 K, Crystal | 247.3 ± 9.2
304.44 K, Crystal | 247.5 ± 9
304.69 K, Crystal | 246.8 ± 8.8
304.94 K, Crystal | 246.8 ± 9
305.19 K, Crystal | 247.1 ± 9.6
305.44 K, Crystal | 248.1 ± 9.9
305.69 K, Crystal | 247.8 ± 9.4
305.94 K, Crystal | 247.5 ± 9.2
306.19 K, Crystal | 247.7 ± 9.7
306.44 K, Crystal | 248.9 ± 9.7
306.69 K, Crystal | 248.8 ± 10
306.94 K, Crystal | 249.6 ± 10
307.19 K, Crystal | 250.4 ± 9.7
307.44 K, Crystal | 250.1 ± 9.7
307.69 K, Crystal | 250.1 ± 9.4
307.94 K, Crystal | 249.4 ± 9.7
308.19 K, Crystal | 249.7 ± 9.4
308.44 K, Crystal | 250.1 ± 9.9
308.69 K, Crystal | 249.7 ± 9.4
308.94 K, Crystal | 250.3 ± 9.9
309.19 K, Crystal | 250.8 ± 9.9
309.44 K, Crystal | 251.7 ± 10
309.69 K, Crystal | 252.9 ± 11
309.94 K, Crystal | 251.9 ± 9.9
310.19 K, Crystal | 253.2 ± 10
310.44 K, Crystal | 253.8 ± 9.7
310.69 K, Crystal | 253.1 ± 9
310.94 K, Crystal | 253.2 ± 8.8
311.19 K, Crystal | 252.6 ± 9.7
311.44 K, Crystal | 252.4 ± 9.9
311.69 K, Crystal | 253.1 ± 10
311.94 K, Crystal | 252.2 ± 9.5
312.19 K, Crystal | 252.8 ± 9
312.44 K, Crystal | 252.4 ± 9.9
312.69 K, Crystal | 253.6 ± 9.3
312.94 K, Crystal | 254 ± 10
313.19 K, Crystal | 253.3 ± 9.3
313.44 K, Crystal | 254.6 ± 9.7
313.69 K, Crystal | 255.2 ± 10
313.94 K, Crystal | 255 ± 10
314.19 K, Crystal | 255.4 ± 10
314.44 K, Crystal | 256.5 ± 11
314.69 K, Crystal | 256.9 ± 10
314.94 K, Crystal | 256.1 ± 11
315.19 K, Crystal | 256 ± 10
315.44 K, Crystal | 255.8 ± 9.5
315.69 K, Crystal | 255.8 ± 9.9
315.94 K, Crystal | 256 ± 11
316.19 K, Crystal | 256.4 ± 11
316.44 K, Crystal | 256.4 ± 11
316.69 K, Crystal | 257.2 ± 11
316.94 K, Crystal | 258 ± 11
317.19 K, Crystal | 257.2 ± 11
317.44 K, Crystal | 257.6 ± 11
317.69 K, Crystal | 257.8 ± 11
317.94 K, Crystal | 257.4 ± 11
318.19 K, Crystal | 257 ± 11
318.44 K, Crystal | 258.3 ± 11
318.69 K, Crystal | 258.9 ± 11
318.94 K, Crystal | 259.1 ± 11
319.19 K, Crystal | 260.1 ± 11
319.44 K, Crystal | 259.4 ± 12
319.69 K, Crystal | 260.1 ± 12
319.94 K, Crystal | 259.7 ± 12
320.19 K, Crystal | 259.7 ± 12
320.44 K, Crystal | 260.3 ± 12
320.69 K, Crystal | 260.6 ± 12
320.94 K, Crystal | 261.2 ± 12
321.19 K, Crystal | 261.4 ± 12
321.44 K, Crystal | 260.7 ± 12
321.69 K, Crystal | 260.9 ± 12
321.94 K, Crystal | 260.9 ± 12
322.19 K, Crystal | 261.4 ± 12
322.44 K, Crystal | 262.1 ± 13
322.69 K, Crystal | 262.7 ± 13
322.94 K, Crystal | 262.6 ± 13
323.19 K, Crystal | 263.3 ± 12
323.44 K, Crystal | 263.3 ± 12
323.69 K, Crystal | 262.8 ± 12
323.94 K, Crystal | 263 ± 12
324.19 K, Crystal | 264.1 ± 13
324.44 K, Crystal | 264.2 ± 13
324.69 K, Crystal | 264.3 ± 12
324.94 K, Crystal | 265.1 ± 13
325.19 K, Crystal | 265.2 ± 12
325.44 K, Crystal | 265.1 ± 12
325.69 K, Crystal | 265.8 ± 13
325.94 K, Crystal | 266.1 ± 13
326.19 K, Crystal | 266.1 ± 13
326.44 K, Crystal | 267.6 ± 13
326.69 K, Crystal | 267.8 ± 14
326.94 K, Crystal | 267.5 ± 14
327.19 K, Crystal | 267.3 ± 13
327.44 K, Crystal | 267.7 ± 13
327.69 K, Crystal | 268.3 ± 14
327.94 K, Crystal | 268.4 ± 14
328.19 K, Crystal | 268.9 ± 14
328.44 K, Crystal | 269.8 ± 14
328.69 K, Crystal | 269.8 ± 14
328.94 K, Crystal | 270.3 ± 14
329.19 K, Crystal | 270.3 ± 14
329.44 K, Crystal | 272 ± 14
329.69 K, Crystal | 273.2 ± 14
329.94 K, Crystal | 272.8 ± 14
330.19 K, Crystal | 273.6 ± 15
330.44 K, Crystal | 273.2 ± 14
330.69 K, Crystal | 275.7 ± 14
330.94 K, Crystal | 275.7 ± 14
331.19 K, Crystal | 277.6 ± 14
331.44 K, Crystal | 277.9 ± 15
331.69 K, Crystal | 278.6 ± 15
331.94 K, Crystal | 280.4 ± 15
332.19 K, Crystal | 281.8 ± 16
332.44 K, Crystal | 283.8 ± 16
332.69 K, Crystal | 285.5 ± 16
332.94 K, Crystal | 287.6 ± 16
333.19 K, Crystal | 291.7 ± 17
333.44 K, Crystal | 295.7 ± 18
340.69 K, Liquid | 393.2 ± 31
340.94 K, Liquid | 373.9 ± 15
341.19 K, Liquid | 368.2 ± 16
341.44 K, Liquid | 365.9 ± 15
341.69 K, Liquid | 367 ± 15
341.94 K, Liquid | 367.1 ± 16
342.19 K, Liquid | 366.1 ± 15
342.44 K, Liquid | 366.4 ± 16
342.69 K, Liquid | 368.5 ± 16
342.94 K, Liquid | 384.8 ± 17
343.19 K, Liquid | 386 ± 18
343.44 K, Liquid | 368.7 ± 16
343.69 K, Liquid | 364.2 ± 20
343.94 K, Liquid | 364.3 ± 21
344.19 K, Liquid | 364.4 ± 20
344.44 K, Liquid | 365 ± 20
344.69 K, Liquid | 366.8 ± 18
344.94 K, Liquid | 368.6 ± 18
345.19 K, Liquid | 369.5 ± 18
345.44 K, Liquid | 369.4 ± 17
345.69 K, Liquid | 370.7 ± 16
345.94 K, Liquid | 371 ± 16
346.19 K, Liquid | 371 ± 16
346.44 K, Liquid | 370.7 ± 16
346.69 K, Liquid | 371 ± 16
346.94 K, Liquid | 372.4 ± 16
347.19 K, Liquid | 373.1 ± 16
347.44 K, Liquid | 372.8 ± 16
347.69 K, Liquid | 373.7 ± 17
347.94 K, Liquid | 374 ± 17
348.19 K, Liquid | 373.1 ± 17
348.44 K, Liquid | 372.9 ± 17
348.69 K, Liquid | 371.8 ± 17
348.94 K, Liquid | 372 ± 17
349.19 K, Liquid | 373 ± 17
349.44 K, Liquid | 374.4 ± 17
349.69 K, Liquid | 374.8 ± 18
349.94 K, Liquid | 374 ± 18
350.19 K, Liquid | 374.1 ± 18
350.44 K, Liquid | 375.3 ± 17
350.69 K, Liquid | 374.9 ± 18
350.94 K, Liquid | 373.9 ± 18
351.19 K, Liquid | 375 ± 17
351.44 K, Liquid | 376.6 ± 18
351.68 K, Liquid | 375.6 ± 18
351.93 K, Liquid | 376.3 ± 18

Settings | mass density [kg/m3]
[3], 298 K, 101.33 kPa, X-ray diffraction | 1204.5 ± 8

Settings | Normal melting temperature [°C]
[3], DTA | 61.1 ± 0.8
